Patent US8426448B2, “1,5-diphenyl-pyrrolidin-2-one compounds as CB-1 ligands” (Eli Lilly and Company, priority 2008, dated 2013)
Structures can show the parent of a compound that is named as a salt.

Assays:
rCB-1 = molecular target: T1, rCB-1 (Rattus norvegicus, UniProt P20272); experiment: rCB1-CHO antagonist mode SPA GTP-γ-35S binding assay; assay type: biochemical; conditions: antagonist mode vs methanandamide; read-out: rCB-1 SPA GTPγS CHO Membrane Antagonist Kb
T1 construct: purchased Applied Cell Sciences, Rockville, Md; host or cells: CHO cell membranes
Description: Compounds of the present invention may be tested for functional activity at the CB-1 and CB-2 receptors in both agonist and antagonist modes using SPA (Scintillation Proximity Assay) based GTP-γ-^35S binding assays. All assay components are prepared in assay buffer (20 mM HEPES, 100 mM NaCl, 5 mM MgCl2, pH 7.4) at room temperature. Semi-log dilutions of test compound are prepared in assay buffer containing BSA (0.125% final conc.) for the agonist mode assays. For the antagonist mode assays, test compounds are prepared in the same manner but also include an 80% efficacious dose of a full agonist (methanandamide). GTP-γ^35S binding for the antagonist assay may be measured in a 96 well format using a modification of an antibody capture technique previously described. (DeLapp, N W, et al. (1999) J Pharmacol Exp Ther 289:946-955.) The CB-2 receptor agonist activity may be measured using a similar method using hCB2-Sf9 membranes. The CB-1 receptor agonist activity may be measured using a whole membrane capture technique using hCB1-CHO membranes. All incubations are done at room temperature.
hCB1-CHO or rCB1-CHO membranes (Applied Cell Sciences, Rockville, Md.) and GDP (1 μM final) are added to ice cold assay buffer and homogenized. […] Plates are then centrifuged at 700×g for 10 min. and the radioactivity counted.
Data are analyzed as follows: Background is subtracted from all wells. […] Percent antagonist inhibition is calculated by first normalizing the data to the signal generated by a saturating concentration of the full agonist (methanandamide). Then the data are analyzed using a 4-parameter logistic reduced fit (Activity Base™ and XLFit3™ from IDBS, Emeryville, Calif.). Kb values are determined using a modification of the Cheng-Prusoff relationship: Kb=IC50/(1+[agonist]/EC50), where “IC50” is determined from a four parameter fit of displacement curves, “[agonist]” is the agonist challenge concentration (nM), and “EC50” is determined from a four parameter fit of a full agonist concentration response curve (Cheng and Prusoff 1973). […]

CYP2D6 = molecular target: T2, CYP2D6 (Homo sapiens, UniProt P10635); experiment: Human CYP fingerprinting, quinidine inhibition; assay type: in vitro ADME; conditions: 4 μM, human liver microsomes, 30 min, 10 μM quinidine
T2 construct: pooled, mixed gender, human liver microsomes; from tissue; host or cells: pooled, mixed gender human liver microsomes
Description: CYP fingerprinting is well established technique and is used as an indication of potential risk of drug-drug interactions in the pharmaceutical sciences. Compounds of the present invention may be assayed by well known methods, essentially as follows: Compounds are incubated at 37° C. at a final concentration of 4 μM with pooled, mixed gender, human liver microsomes and 1 mM NADPH (Nicotine Adenine Dinucleotide Phosphate) (final conc.) for 0 and 30 min. without any CYP inhibitor and with each CYP inhibitor in separate incubations for 30 min. Each inhibitor is specific for an individual cytochrome P450. The specific inhibitors used for CYPs 2C9, 2D6 and 3A were sulfaphenazole, quinidine and ketoconazole, respectively. Ketoconazole (CYP3A) is made up at 25 mM in DMSO and then diluted in buffer to a final concentration of 10 μM. Quinidine (CYP2D6) is made up at 5 mM in 50/50 acetonitrile/water and then diluted in buffer to a final concentration of 10 μM. Sulfaphenazole (CYP2C9) is made up at 100 mM in DMSO and then diluted in buffer to a final concentration of 5 μM. Samples are analyzed by LC-MS in positive or negative electrospray mode using a Waters Acquity Ultra Performance LC coupled to a MicroMass Q-T of-2 mass spectrometer.
Data are analyzed using MetaboLynx™ version 4.1. […]

T2 sequence (P10635 whole entry): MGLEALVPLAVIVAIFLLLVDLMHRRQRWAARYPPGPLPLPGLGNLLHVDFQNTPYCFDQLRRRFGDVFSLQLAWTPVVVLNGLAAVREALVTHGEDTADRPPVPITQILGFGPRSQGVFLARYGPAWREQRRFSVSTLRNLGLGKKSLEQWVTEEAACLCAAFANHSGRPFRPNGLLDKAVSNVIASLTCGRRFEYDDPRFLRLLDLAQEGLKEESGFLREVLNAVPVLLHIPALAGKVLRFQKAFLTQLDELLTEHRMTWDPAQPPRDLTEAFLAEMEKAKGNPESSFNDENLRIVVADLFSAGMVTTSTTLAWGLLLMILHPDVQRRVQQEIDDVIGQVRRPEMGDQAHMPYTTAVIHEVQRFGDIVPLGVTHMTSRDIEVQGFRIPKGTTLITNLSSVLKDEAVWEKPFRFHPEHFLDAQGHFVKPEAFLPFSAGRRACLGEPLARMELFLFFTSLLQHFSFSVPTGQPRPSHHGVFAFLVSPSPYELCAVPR
T1 sequence (P20272 whole entry): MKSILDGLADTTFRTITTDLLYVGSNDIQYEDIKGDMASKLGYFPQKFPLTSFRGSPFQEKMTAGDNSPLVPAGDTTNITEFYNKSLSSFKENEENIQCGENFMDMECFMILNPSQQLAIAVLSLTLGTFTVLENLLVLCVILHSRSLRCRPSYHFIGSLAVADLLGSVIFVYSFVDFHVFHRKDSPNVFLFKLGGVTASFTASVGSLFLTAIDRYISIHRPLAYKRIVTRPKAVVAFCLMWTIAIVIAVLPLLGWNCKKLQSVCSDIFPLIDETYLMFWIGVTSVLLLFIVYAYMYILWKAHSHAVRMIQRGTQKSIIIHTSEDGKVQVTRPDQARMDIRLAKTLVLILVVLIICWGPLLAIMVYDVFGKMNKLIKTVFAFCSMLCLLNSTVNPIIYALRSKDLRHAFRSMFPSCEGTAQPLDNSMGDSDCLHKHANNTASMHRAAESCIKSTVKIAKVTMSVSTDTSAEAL

Question: For `CC(C)(N[C@@H]1C[C@H](c2cccc(C(F)(F)F)c2)N(c2ccc(OC(F)(F)F)cc2)C1=O)c1cccc(C(F)(F)F)n1` [28 HCl salt, (3R,5R)-3-[1-methyl-1-(6-trifluoromethyl-pyridin-2-yl)-ethylamino]-1-(4-trifluoromethoxy-phenyl)-5-(3-trifluoromethyl-phenyl)-pyrrolidin-2-one], which Kb (rCB-1) is on record?
Answer: Its Kb is 0.196 nM.

Question: And the “Risk of Drug Drug Interaction (DDI) CYP2D6” value (CYP2D6)?
Answer: Its value is “Low”.
